Reference: patent US20230137816A1, “ADMINISTRATION OF CALCIUM CHANNEL TRPC6 INHIBITORS USING BALLOONS, STENTS OR OTHER MEDICAL DEVICES” (DEUTSCHES HERZZENTRUM MUENCHEN DES FREISTAATES BAYERN, priority 2020, published 2023)

How the values were obtained:
Type in all cases: cell-based
[1] = system: human aortic smooth muscle cells (hAoSMC); assay: Radius migration assay of human aortic SMC on SAR7334 coating; conditions: culture dish coated with SAR7334 (100 nM in gelatin), 48 h
Description: (§1) Human aortic smooth muscle cells (hAoSMC) were purchased from PromoCell (Heidelberg, Germany) and cultured at 37° C. in a humidified 5% CO2 atmosphere in the recommended cell culture medium (PromoCell, Heidelberg, Germany).
For scratch wound assays, cells were seeded in 24 well plates at a density of 100,000 cells per well. After they had grown to confluence for 24 h the cell monolayer was scratched in the middle with a 200 μl pipette tip. Cells were washed with PBS and incubated in growth medium supplemented with OAG (Sigma-Aldrich, St. Louis, Mo., USA) at final concentration of 100 μM or SAR 7334 (Bio-Techne, Wiesbaden, Germany) at a final concentration of […]. 1% DMSO was used as control. Wound area was measured directly after the scratch (t0) and after 6 h (t1), 8 h (t2) and 12 h (t3) with a phase-contrast microscope (Axiovert 100, Zeiss, Oberkochen, Germany) and assessed with ImageJ version 1.47v. Wound reclosure was measured as Δt0-t1 (6 h), Δt0-t2 (8 h), and Δt0-t3 (12 h) in pixels. […] Wound reclosure was measured as Δt0-t1 (48 h) in pixels. […]
For scratch wound assays, cells were seeded in 24 well plates at a density of 100,000 cells per well. […] Wound area was measured directly after the scratch (t0) and after 6 h (t1), 8 h (t2) and 12 h (t3) with a phase-contrast microscope (Axiovert 100, Zeiss, Oberkochen, Germany) and assessed with ImageJ version 1.47v. […]

[2] = system: human aortic smooth muscle cells (hAoSMC); assay: Scratch wound assay of human aortic SMCs (cell migration); design: VSMC migration (wound reclosure) / VSMC migration versus control: dose or concentration left out as unconfirmed; conditions: for wound reclosure: 100 μM OAG
Description: as §1
For scratch wound assays, cells were seeded in 24 well plates at a density of 100,000 cells per well. After they had grown to confluence for 24 h the cell monolayer was scratched in the middle with a 200 μl pipette tip. Cells were washed with PBS and incubated in growth medium supplemented with OAG (Sigma-Aldrich, St. […] Wound area was measured directly after the scratch (t0) and after 6 h (t1), 8 h (t2) and 12 h (t3) with a phase-contrast microscope (Axiovert 100, Zeiss, Oberkochen, Germany) and assessed with ImageJ version 1.47v. Wound reclosure was measured as Δt0-t1 (6 h), Δt0-t2 (8 h), and Δt0-t3 (12 h) in pixels. Scratch assays were performed in triplicates. For radius assays, 24-well plates were coated with gelatin solution (Pelobiotech, Planegg, Germany). Culture cylinders (total diameter 4 mm, inner diameter 2 mm; Bioptechs, Butler, Pa., USA) were then placed in the middle of the well and cells were seeded at a density of 100,000 cells per well around the cylinders. 20 μL of SAR 7334 with a final concentration of 100 nM in gelatin were added to the inner of the cylinders. 1% DMSO was used as control. After 24 h of incubation cylinders were removed and pictures were acquired immediately (t0) and after 48 h (t1) using a phase-contrast microscopy system (Axiovert 100, Zeiss, Oberkochen, Germany). Wound reclosure was measured as Δt0-t1 (48 h) in pixels. Measurements were performed in duplicates.
For scratch wound assays, cells were seeded in 24 well plates at a density of 100,000 cells per well. After they had grown to confluence for 24 h the cell monolayer was scratched in the middle with a 200 μl pipette tip. Cells were washed with PBS and incubated in growth medium supplemented with OAG (Sigma-Aldrich, St. Louis, Mo., USA) at final concentration of 100 μM or SAR 7334 (Bio-Techne, Wiesbaden, Germany) at a final concentration of 100 nM. 1% DMSO was used as control. Wound area was measured directly after the scratch (t0) and after 6 h (t1), 8 h (t2) and 12 h (t3) with a phase-contrast microscope (Axiovert 100, Zeiss, Oberkochen, Germany) and assessed with ImageJ version 1.47v. Wound reclosure was measured as Δt0-t1 (6 h), Δt0-t2 (8 h), and Δt0-t3 (12 h) in pixels. Scratch assays were performed in triplicates. For radius assays, 24-well plates were coated with gelatin solution (Pelobiotech, Planegg, Germany). Culture cylinders (total diameter 4 mm, inner diameter 2 mm; Bioptechs, Butler, Pa., USA) were then placed in the middle of the well and cells were seeded at a density of 100,000 cells per well around the cylinders. 20 μL of SAR 7334 with a final concentration of 100 nM in gelatin were added to the inner of the cylinders. 1% DMSO was used as control. After 24 h of incubation cylinders were removed and pictures were acquired immediately (t0) and after 48 h (t1) using a phase-contrast microscopy system (Axiovert 100, Zeiss, Oberkochen, Germany). Wound reclosure was measured as Δt0-t1 (48 h) in pixels. Measurements were performed in duplicates.

[3] = system: human aortic smooth muscle cells (hAoSMC); assay: Cell proliferation assay, BrdU ELISA; conditions: 100 μM OAG; vehicle 0.08±0.03, p<0.01
Description: as §1
Cell proliferation was assessed using of a colorimetric bromodeoxyuridine (BrdU) enzyme-linked immunosorbent assay (ELISA) according to manufacturer's protocol (Roche Applied Science, Penzberg, Germany). Briefly, cells were seeded in 96 well plates at a density of 10,000 cells per well in starving medium, i.e., lacking FBS and growth factors. After 24 h, the starving medium was replaced by growth medium which was either supplemented with 1-Oleoyl-2-acetyl-sn-glycerol (OAG; Sigma-Aldrich, St. Louis, Mo., USA) at a final concentration of 100 μM, SAR 7334 (Tocris Bioscience, Bristol, UK) at a final concentration of 100 nM or with 1% of DMSO which was used as vehicle. After incubation for another 24 h, 10 μl of BrdU solution were added. Absorbance was measured at 370 nm with a reference wavelength of 492 nm in the Infinite M200 PRO microplate reader using the iControl v1.10 software (both Tecan Group, Männedorf, Switzerland) after further 24 h. Measurements were performed in triplicates.

Row | Compound | local migration versus control culture [1] | VSMC migration versus control ([2]; 6 hours after injury) | VSMC migration versus control ([2]; 8 hours after injury) | VSMC migration (wound reclosure) ([2]; 12 hours after scratch, control 130.0±10.6, p=0.04) | wound reclosure ([2]; 12 hours after scratch, vehicle 156.93±7.06, p=0.01) | wound reclosure ([2]; eight hours after scratch, vehicle 69.05±7.03, p=0.01) | proliferation of human VSMCs (BrdU ELISA) [3] [absorbance units]
1 | N#Cc1ccc(O[C@@H]2c3ccccc3C[C@H]2N2CCC[C@@H](N)C2)c(Cl)c1 [SAR7334] | reduced local migration | comparable to control levels | comparable to control levels | 111.4±15.5 10^3 pixels |  |  | 
2 | CCCCCCCC/C=C\CCCCCCCC(=O)OC[C@H](CO)OC(C)=O [OAG, 1-oleoyl-2-acetyl-sn-glycerol] |  |  |  |  | 179.14±3.61 10^3 pixels | 93.09±3.67 10^3 pixels | 0.31±0.07
